# Calls of active or inactive are those of the source. The calls are words filed in the database; no cut-off is given here.
# What was measured:
# [1] = test system: Mus musculus; assay: Mean survival time against Plasmodium yoelii in mice (Mus musculus) which died during 28-day observation period at 96 mg/kg/day intramuscularly; assay type: functional; settings: route intramuscular
# [2] = test system: Mus musculus; assay: Mean survival time against Plasmodium yoelii in mice (Mus musculus) which died during 28-day observation period at 96 mg/kg/day orally; assay type: functional; settings: route oral
# [3] = test system: Mus musculus; assay: In vivo antimalarial activity against Plasmodium yoelii in mice (Mus musculus) at 96 mg/kg/day intramuscularly on day 4 expressed as percent suppression; assay type: functional; settings: route intramuscular
# [4] = test system: Mus musculus; assay: In vivo antimalarial activity against Plasmodium yoelii in mice (Mus musculus) at 96 mg/kg/day orally on day 4 expressed as percent suppression; assay type: functional; settings: route oral
# [5] = Number of survivals against Plasmodium yoelii in mice (Mus musculus) (out of 5) at 96 mg/kg/day intramuscularly on day 28; assay type: organism-based; design: route intramuscular; settings: in vivo, im
# [6] = Number of survivals against Plasmodium yoelii in mice (Mus musculus) (out of 5) at 96 mg/kg/day orally on day 28; assay type: organism-based; design: route oral; settings: in vivo, po
# [7] = test system: Mus musculus; assay: Mean survival time against Plasmodium yoelii in mice (Mus musculus) which died during 28-day observation period at 24 mg/kg/day orally; assay type: functional; settings: route oral
# [8] = test system: Mus musculus; assay: Mean survival time against Plasmodium yoelii in mice (Mus musculus) which died during 28-day observation period at 48 mg/kg/day orally; assay type: functional; settings: route oral
# [9] = test system: Mus musculus; assay: In vivo antimalarial activity against Plasmodium yoelii in mice (Mus musculus) at 24 mg/kg/day orally on day 4 expressed as percent suppression; assay type: functional; settings: route oral
# [10] = test system: Mus musculus; assay: In vivo antimalarial activity against Plasmodium yoelii in mice (Mus musculus) at 48 mg/kg/day orally on day 4 expressed as percent suppression; assay type: functional; settings: route oral
# [11] = Number of survivals against Plasmodium yoelii in mice (Mus musculus) (out of 5) at 48 mg/kg/day orally on day 28; assay type: organism-based; design: route oral; settings: in vivo, po
# [12] = Number of survivals against Plasmodium yoelii in mice (Mus musculus) (out of 5) at 24 mg/kg/day orally on day 28; assay type: organism-based; design: route oral; settings: in vivo, po
# [13] = test system: Mus musculus; assay: In vivo antimalarial activity against Plasmodium yoelii in mice (Mus musculus) at 96 mg/kg/day intramuscularly on day 4 expressed as percent suppression; No suppression; assay type: functional, organism-based
# [14] = test system: Mus musculus; assay: Percent suppression against Plasmodium yoelii in mice (Mus musculus) at 24 mg/kg/day orally on day 4; assay type: functional; settings: route oral
# [15] = test system: Mus musculus; assay: Percent suppression against Plasmodium yoelii in mice (Mus musculus) at 96 mg/kg/day intramuscularly on day 4; assay type: functional; settings: route intramuscular
compound,measurement,setting,value
C=C(c1ccccc1)C1COC2(CCC(Nc3ccccc3)CC2)OO1 (stereo not given),MST,[1],13.4 days
same,MST,[2],12.2 days
same,Suppression,[3],60%
same,Suppression,[4],95%
same,No. of survivals,[5],0
same,No. of survivals,[6],0
C=C(c1ccc(-c2ccccc2)cc1)C1COC2(CCC(=O)CC2)OO1 (stereo not given),MST,[1],17.7 days
same,MST,[2],10.2 days
same,Suppression,[3],100%
same,Suppression,[4],92%
same,No. of survivals,[5],1
same,No. of survivals,[6],0
CCO[C@H]1O[C@@H]2O[C@@]3(C)CC[C@H]4[C@H](C)CC[C@@H]([C@H]1C)[C@@]24OO3 [ARTEMOTIL],MST,[7],17.75 days
same,MST,[8],>28 days
same,Suppression,[9],100%
same,Suppression,[10],100%
same,No. of survivals,[11],5
same,No. of survivals,[12],1
C=C(c1ccccc1)C1COC2(CCC(Nc3ccc(OC)cc3)CC2)OO1 (stereo not given),MST,[1],10.8 days
same,MST,[2],12.4 days
same,Suppression,[3],63%
same,Suppression,[4],93%
same,No. of survivals,[5],0
same,No. of survivals,[6],0
C=C(c1ccc(-c2ccccc2)cc1)C1COC2(CCC(Nc3ccc(NC(C)=O)cc3)CC2)OO1 (stereo not given),MST,[1],11.6 days
same,MST,[2],8.4 days
same,Suppression,[3],90%
same,Suppression,[4],49%
same,No. of survivals,[5],0
same,No. of survivals,[6],0
C=C(c1ccc(-c2ccccc2)cc1)C1COC2(CCC(Nc3ccc(OC)cc3)CC2)OO1 (stereo not given),MST,[1],8.4 days
same,MST,[2],11.1 days
same,Suppression,[3],57%
same,Suppression,[4],94%
same,No. of survivals,[5],0
same,No. of survivals,[6],0
CCN(CC)CCCC(C)Nc1ccnc2cc(Cl)ccc12 (stereo not given) [CHLOROQUINE],MST,[7],14.8 days
same,MST,[8],17.6 days
same,Suppression,[9],100%
same,Suppression,[10],100%
same,No. of survivals,[11],2
same,No. of survivals,[12],0
C=C(c1ccc(-c2ccccc2)cc1)C1COC2(CCC(Nc3cccc4ccccc34)CC2)OO1 (stereo not given),MST,[1],6.6 days
same,MST,[2],14.8 days
same,Suppression,[13],inactive
same,Suppression,[4],100%
same,No. of survivals,[5],0
same,No. of survivals,[6],0
C=C(c1ccc(-c2ccccc2)cc1)C1COC2(CCC(Nc3ccccc3)CC2)OO1 (stereo not given),MST,[7],13.4 days
same,MST,[8],14.5 days
same,MST,[1],10.7 days
same,MST,[2],>28 days
same,Suppression,[10],100%
same,Suppression,[4],100%
same,Suppression,[14],98%
same,Suppression,[15],72%
same,No. of survivals,[11],3
same,No. of survivals,[5],0
same,No. of survivals,[6],5
same,No. of survivals,[12],0
C=C(c1ccccc1)C1COC2(CCC(=O)CC2)OO1 (stereo not given),MST,[1],11.6 days
same,MST,[2],7.2 days
same,Suppression,[3],99%
same,Suppression,[4],7%
same,No. of survivals,[5],0
same,No. of survivals,[6],0
C=C(c1ccccc1)C1COC2(CCC(Nc3cccc4ccccc34)CC2)OO1 (stereo not given),MST,[1],9.2 days
same,MST,[2],19.5 days
same,Suppression,[3],44%
same,Suppression,[4],100%
same,No. of survivals,[5],0
same,No. of survivals,[6],0
C=C(c1ccc(-c2ccccc2)cc1)C1COC2(CCC(Nc3cc(Cl)cc(Cl)c3)CC2)OO1 (stereo not given),MST,[1],7 days
same,MST,[2],10.2 days
same,Suppression,[3],46%
same,Suppression,[4],65%
same,No. of survivals,[5],0
same,No. of survivals,[6],0
C=C(c1ccccc1)C1COC2(CCC(Nc3cc(Cl)cc(Cl)c3)CC2)OO1 (stereo not given),MST,[1],12.4 days
same,MST,[2],16.5 days
same,Suppression,[3],62%
same,Suppression,[4],100%
same,No. of survivals,[5],0
same,No. of survivals,[6],2
C=C(c1ccccc1)C1COC2(CCC(Nc3ccc(NC(C)=O)cc3)CC2)OO1 (stereo not given),MST,[1],9 days
same,MST,[2],9.8 days
same,Suppression,[3],98%
same,Suppression,[4],77%
same,No. of survivals,[5],0
same,No. of survivals,[6],0

# — ChEMBL document CHEMBL1146839, “Orally active amino functionalized antimalarial 1,2,4-trioxanes” (Bioorg Med Chem Lett, 2004)
